According to ChEMBL document CHEMBL1130473, “Synthesis and in vitro antibacterial activities of novel conformationally restricted hygromycin a analogues” (1997):
Converted amounts (≈) assume the structure as drawn.

Columns and labels:
Format in all cases: functional
Pasteurella multocida = assay: Compound was tested for minimum inhibitory concentration against Pasteurella multocida
[1] = test system: Brachyspira hyodysenteriae; assay: Compound was tested for minimum inhibitory concentration against S. hyodysenteriae; 6.25-12.5
[2] = test system: Brachyspira hyodysenteriae; assay: Compound was tested for minimum inhibitory concentration against Serpulina hyodysenteriae

Row | Structure (SMILES) | MIC (Pasteurella multocida) [µg/mL] | MIC [1] [µg/mL] | MIC [2] [µg/mL]
1 | CC/C=C1/COc2cc(/C=C(\C)C(=O)N[C@@H]3[C@H](O)[C@@H](O)[C@H]4OCO[C@H]4[C@@H]3O)ccc21 | 50 (≈ 120 µM) | – | –
2 | CCCc1coc2cc(/C=C(\C)C(=O)N[C@@H]3[C@H](O)[C@@H](O)[C@H]4OCO[C@H]4[C@@H]3O)ccc12 | 50 (≈ 120 µM) | – | –
3 | C=CCOc1cc2c(cc1O)C=C(C(=O)N[C@@H]1[C@H](O)[C@@H](O)[C@H]3OCO[C@H]3[C@@H]1O)CC2 | 12.5 (≈ 29.8 µM) | 6.25 (≈ 14.9 µM) | –
4 | C=CCOc1cc2ccc(C(=O)N[C@@H]3[C@H](O)[C@@H](O)[C@H]4OCO[C@H]4[C@@H]3O)cc2cc1O | 50 (≈ 120 µM) | – | 50 (≈ 120 µM)
5 | CC/C=C1\COc2cc(/C=C(\C)C(=O)N[C@@H]3[C@H](O)[C@@H](O)[C@H]4OCO[C@H]4[C@@H]3O)ccc21 | 50 (≈ 120 µM) | – | –
6 | C=CCOc1ccc2c(c1O)CCC(C(=O)N[C@@H]1[C@H](O)[C@@H](O)[C@H]3OCO[C@H]3[C@@H]1O)=C2 | > 200 | – | > 200
7 | C=CCOc1cc2c(cc1O)C=C(C(=O)N[C@@H]1[C@H](O)[C@@H](O)[C@H]3OCO[C@H]3[C@@H]1O)C2 | > 200 | – | > 200
8 | C=CCOc1cc2c(cc1O)C=C(C(=O)N[C@@H]1[C@H](O)[C@@H](O)[C@H]3OCO[C@H]3[C@@H]1O)CCC2 | 25 (≈ 57.7 µM) | – | 25 (≈ 57.7 µM)
9 | CCCC1COc2cc(/C=C(\C)C(=O)N[C@@H]3[C@H](O)[C@@H](O)[C@H]4OCO[C@H]4[C@@H]3O)ccc21 (some centres undefined) | 6.25 (≈ 14.9 µM) | – | –
